Literature values as cited in US8716354B2 (priority 2003, dated 2014).

Settings: intravenous injection of a therapeutic dose

**Q.** With `CC(C)c1cccc(C(C)C)c1O` [propofol, 2,6-diisopropylphenol] as the compound, how does the “Time to hypnosis from the start of injection” value read?
**A.** Its value is at most 40 s.
